In data set [1] the test system is drug resistant variant of the Ridgway osteogenic sarcoma. Also noted: method as in Merry et al., 1991. The following applies: in vivo model; ref Merry et al., 1991; cited from earlier work.
The conditions of data set [2]: cited from earlier work.
Data set [3] relates to MCF-7 adrr cell line. Briefly: cells. The source says:
(§1) Br. J. Cancer (1992), 66, 833-839 ? […] Clinical effects and in vitro assessment in p-glycoprotein expressing cell lines N.S.A. Stuart', P. Philip', A.L. Harris', K. Tonkin', S. Houlbrook2, J. Kirk2, E.A. Lien3 & J. Carmichael' 'ICRF Clinical Oncology Unit, Churchill Hospital, Oxford OX3 7LJ; 2MRC Radiobiology Unit, Chilton, Didcot, Oxon; 3Department of Pharmacology and Toxicology, University of Bergen, Bergen, Norway. […] Cytotoxic drug resistance frequently affects a wide range of cytotoxic agents. It is commonly inherent, although it may also be acquired after initial response to cytotoxic drugs. Cell lines exposed in vitro to one cytotoxic drug may also become resistant to a range of structurally and functionally diverse agents. This multidrug resistant (MDR) phenotype is associ- ated with the presence of a 170 kd membrane glycoprotein, the P-glycoprotein (Pgp) (Juliano et al., 1976; Kartner et al., 1983; Riordan et al., 1985) which acts as an energy depen- dent efflux pump (Skovsgaard, 1978). […] Unfor- tunately many cause unacceptable toxicity at levels below those needed to modulate resistance and have therefore not been useful clinically (Ozols et al., 1987). Some encouraging results have however been reported in lymphoid malignan- cies. […] It is widely used in the treatment of breast cancer at doses of 20-40mgday-' and at such doses produces serum levels around 0.5 JiM (Adam et al., 1980; Fabian et al., 1980; Lien et al., 1989). […] Etoposide (VP16-213, Vepesid) is an epipodophyllotoxin derived cytotoxic drug which interferes with the action of the nuclear enzyme topoisomerase II producing lethal single and double stranded DNA breaks (Chen et al., 1984). It has activity in a number of solid tumours and resistance to it is part of the typical MDR phenotype (Endicott et al., 1989). […] The study therefore included patients with a range of relapsed and chemoresistant tumours. […] Patients had ECOG performance scores of 2 or better, had normal renal and hepatic function and had normal peripheral blood counts. […] Correspondence: N.S. Stuart. Received 13 March 1992; and in revised form 8 July 1992. 'PI Macmillan Press Ltd., 1992 Br. J. Cancer (1992), 66, 833-839 834 N.S.A. STUART et al. No formal compliance check was conducted but patients were asked specifically whether they had difficulties taking the correct number of tablets. Oral etoposide was given at a dose of 300mgday-' (150mg two times day-') for the first course. Patients who remained myelosuppressed on day 21 had the dose of etoposide reduced to 200 mg day-' for subse- quent courses. In those who had no significant myelosuppres- sion the dose of etoposide was increased to 400 mg day-'. […] Blood samples were centrifuged and the serum removed and stored at -20?C prior to measurement. […] The methods used have been published previously (Lien et al., 1989; 1987). […] The drugs were detected by being converted to fluorophors by subjecting the effluent of the column to ultra-violet light while passing through a quartz tube. The identity of the analyses was confirmed by liquid chromatography/mass spec- trometry using an on-line mass spectrometer connected to the analytical column (Lien et al., 1988). Serum levels in different patient populations were compared using the Mann-Whitney U-test. Cells and culture conditions Three pairs of cell lines were assessed. Each comprised a wild-type parental cell line and a P-glycoprotein expressing daughter line. The wild-type MCF-7 cell line was derived from a human breast cancer (Soule et al., 1973) while the CHO-KI cell line was derived from Chinese hamster ovaries (CHO).

A further data set has as its system MCF-7 wt cell line. Put plainly: cells.
From the text: as §1

The test system of the next data set is S1 cell line (SW-1573). Briefly: cells. The following applies: for Enhancement: S1, IC50 etoposide alone divided by IC50 with MNTC tamoxifen.
From the text: as §1

From the text in data set [4]: as §1
In data set [5] the test system is CHO-KI adrr cell line. To be noted: for Enhancement: CHO-KI adrr, IC50 etoposide alone divided by IC50 with MNTC tamoxifen.
From the text: as §1

A further data set deals with S1/1.1 cell line. The following applies: for Enhancement: S1/1.1, IC50 etoposide alone divided by IC50 with MNTC tamoxifen.
From the text: as §1

The test system of another data set is human BRO melanoma cells. Also noted: method as in Lincke et al., 1990. The following applies: parental BRO cell line; ref Lincke et al., 1990; read-out: IC50 for etoposide; cited from earlier work.
Data set [6] relates to CHO-KI cell line. The following applies: IC50 etoposide alone divided by IC50 with MNTC tamoxifen.
From the text: as §1

Data set [7] has as its system CHO-KI cell line. Also noted: method as in Chatterjee et al., 1990b. To be noted: parental CHO-KI line; ref Chatterjee et al., 1990b; cited from earlier work.
The subject of data set [8] is CHO-KI adrr cell line. Also noted: method as in Chatterjee et al., 1990b. The following applies: dox resistant CHO-KI adrr line; ref Chatterjee et al., 1990b; cited from earlier work.
The test system of data set [9] is P388/ADR murine leukaemia line. Also on record: method as in Ramu et al., 1984. The following applies: ref Ramu et al., 1984; cited from earlier work.
In data set [10] the test system is MCF-7 adrr cell line. Also noted: method as in Foster et al., 1988. To be noted: ref Foster et al., 1988; cited from earlier work.
Data set [11] has as its system multidrug resistance in vitro. Also on record: method as in earlier work. To be noted: ref Chatterjee et al., 1990b; Foster et al., 1988; Ramu et al., 1984; cited from earlier work.
The test system of data set [12] is Chinese hamster lung (DC3F/ADX) and breast cancer (MCF-7 adrr) cell lines. Also noted: method as in Politi et al., 1990. The following applies: multidrug resistant mutants; ref Politi et al., 1990; cited from earlier work.
Setting [13] is: Homo sapiens, MCF7, 96 h, read-out: IC50 etoposide.

Like-named read-outs stand apart in the source and are kept apart here. Starred links: 1 amine or outer side, 2 acyl side, 3 side chain; linkers in the order of their positions; H or OH if unused. Positions of bridges follow the written chain, without caps; N, C: chain ends. Non-standard residues stand in square brackets, D forms with d. Residues, ends and D or L forms follow the SMILES beside them. Chains are numbered I, II in the order given. Actinocin(9to1) = Cc1c2oc3c(C)ccc(C(=O)[*:1])c3nc-2c(C(=O)[*:2])c(N)c1=O; NMeV = CN[C@H](C(=O)O)C(C)C; Sar = CNCC(=O)O

In the case of `Cc1c2oc3c(C)ccc(C(=O)N[C@@H]4C(=O)N[C@H](C(C)C)C(=O)N5CCC[C@H]5C(=O)N(C)CC(=O)N(C)[C@@H](C(C)C)C(=O)O[C@@H]4C)c3nc-2c(C(=O)N[C@@H]2C(=O)N[C@H](C(C)C)C(=O)N3CCC[C@H]3C(=O)N(C)CC(=O)N(C)[C@@H](C(C)C)C(=O)O[C@@H]2C)c(N)c1=O` [actinomycin- D, actinomycin-D] (I: T[dV]P[Sar][NMeV] / II: T[dV]P[Sar][NMeV]; ester I:1-I:C, II:1-II:C; linker I:N-II:N via Actinocin(9to1)), the “Resistance of the drug resistant variant” value in data set [1] is on record as 1.5 fold.

In the case of `CC/C(=C(\c1ccccc1)c1ccc(OCCN)cc1)c1ccccc1` [didesmethyltamoxifen], the “Levels lower than those of the parent compound” value in [2] (in vivo) is 60-85%.

For orientation: IC50 means the midpoint of a concentration-inhibition curve. Consider `COc1cc([C@@H]2c3cc4c(cc3[C@@H](O[C@@H]3O[C@@H]5CO[C@@H](C)O[C@H]5[C@H](O)[C@H]3O)[C@H]3COC(=O)[C@H]23)OCO4)cc(OC)c1O` [etoposide], for which the IC50 with MCF-7 adrr cell line [3] (setting [13]) was 60 µM; in the data set on MCF-7 wt cell line (setting [13]) it was 0.95 µM; with S1 cell line (SW-1573) (Homo sapiens, SW1573, 96 h, read-out: IC50 etoposide) it was 3 µM; in the data set on human BRO melanoma cells, 0.016 µM. Besides, the “Resistance to etoposide in comparison to the MCF-7 wild type cell line” value in the data set with MCF-7 adrr cell line [3] (MCF-7 adrr versus MCF-7 wt) is recorded as 60 fold. Also, the Thrombocytopenia result in [4] (human, in vivo, po) was “No significant thrombocytopenia”. In the data set with CHO-KI adrr cell line [5] (CHO-KI adrr versus CHO-KI), the “More resistant than its parental line” value is on record as 5 fold. Further, in the data set with S1/1.1 cell line (S1/1.1 versus S1, P<0.01), the “More sensitive than the parental line” value was found to be 2 fold. Also, in data set [1], the “Resistance of the drug resistant variant” value is recorded as 5 fold.

With `CC/C(=C(\c1ccccc1)c1ccc(OCCN(C)C)cc1)c1ccccc1` [tamoxifen], the Enhancement with MCF-7 adrr cell line [3] (MCF-7 adrr, IC50 etoposide alone divided by IC50 with MNTC tamoxifen) is listed as 0.7; with MCF-7 wt cell line (MCF-7 wt, IC50 etoposide alone divided by IC50 with MNTC tamoxifen), 1.2; with S1 cell line (SW-1573), 0.9; with S1 cell line (SW-1573) (listed as Tamoxifen), “no significant effect”; in the data set on CHO-KI adrr cell line [5] it was 0.85; in the data set with CHO-KI adrr cell line [5] (listed as Tamoxifen), “no significant effect”. For the same compound, the Enhancement in the data set with CHO-KI cell line [6] was 1.0; in the data set on CHO-KI cell line [6] (listed as Tamoxifen), “no significant effect”; in the data set with S1/1.1 cell line it was 0.9; in the data set on S1/1.1 cell line (listed as Tamoxifen), “no significant effect”. Moreover, the “Neurological symptoms: Severe/v. severe (number of patients)” value in data set [4] (tamoxifen 480 mg day-1, total 10 patients) was 0; in data set [4] (tamoxifen 720 mg day-1, total 16 patients), 1 (6%). Besides, the “Enhancement of dox cytotoxicity” value was 4.8 fold in the data set with CHO-KI cell line [7] and 16 fold in the data set on CHO-KI adrr cell line [8]. Also, the “Reversal of adriamycin resistance” value in data set [9] was “partially reversed the resistance”. In the data set on MCF-7 adrr cell line [10], the “Reversal of adriamycin and vinblastine resistance” value is given as “partial reversal”. Besides, the “Levels sufficient to modulate multidrug resistance in vitro” value in data set [11] is on record as 3-10 JAM. In addition, the Serum levels in data set [2] (after 9 days on 260 mg of tamoxifen twice a day, ref Trump et al., 1991) is 6.1 µM; in [2] (continuing tamoxifen 480 mg day-1 indefinitely, ref Stuart et al., 1991) it was “around 4 microM”; in data set [2] (tamoxifen doses of 20-40 mg day-1 in breast cancer, ref Adam et al., 1980, Fabian et al., Lien et al., 1989) it was “around 0.5 microM”. Further, the “Steady state serum levels” value in data set [2] (standard dose tamoxifen 20-40 mg day-1, after 4 weeks, ref Adam et al., 1980, Fabian et al., 1980, Lien et al., 1989) was 0.25 to 1.0 µM. The “Serum levels, plateau” value in [2] (tamoxifen 160 mg three times a day, after 10 days, ref Stuart et al., 1991) is listed as “around 4 microM”.

Regarding `COc1ccc(CCN(C)CCCC(C#N)(c2ccc(OC)c(OC)c2)C(C)C)cc1OC` (stereo not drawn) [verapamil], in [12], the “Effect on etoposide resistance” value is 3-4 fold and the “Enhancement (reversal of resistance to vincristine)” value is on record as 11-125 fold.

Regarding `CC[C@]1(O)C[C@H]2CN(CCc3c([nH]c4ccccc34)[C@@](C(=O)OC)(c3cc4c(cc3OC)N(C=O)[C@H]3[C@@](O)(C(=O)OC)[C@H](OC(C)=O)[C@]5(CC)C=CCN6CC[C@]43[C@@H]65)C2)C1` [vincristine], the “Resistance of the drug resistant variant” value in [1] is recorded as 3.5 fold.

The record behind these values is article PMC1977984 (British Journal of Cancer, 1992).
